{"source": "patent US20240099991A1", "about": "“HOST DIRECTED DRUG COMBINATIONS FOR TREATMENT OF VIRAL INFECTIONS” (priority 2021, published 2024)", "key": {"[1]": {"tested_on": "SARS-CoV-2", "assay": "In vivo efficacy against SARS-CoV-2 in Syrian Golden Hamster Model (lung viral load)", "conditions": "oral, once daily for 3 days (1-3 DPI), Atovaquone 200 mg/kg, Cepharantine 8 mg/kg, combination 200 + 8 mg/kg", "text": "In vivo efficacy evaluation of Atovaquone and Cepharanthine alone and in combination against SARS-CoV-2 in Syrian Golden Hamster Model [Study Protocol Reference:) Syrian hamsters as a small animal model for SARS-CoV-2 infection and countermeasure development. Masaki Imai et al., PNAS 2020, 117(28)16587-16595]\nData Analysis One way ANOVA-Dunnett's multiple comparison test"}, "[2]": {"tested_on": "SARS-CoV-2", "type": "cell-based"}, "[3]": {"tested_on": "Vero E6 cells"}, "[4]": {"tested_on": "Vero E6 cells", "assay": "Cytotoxicity of test agents in the Vero E6 checkerboard assay", "conditions": "Experiment 2, highest concentration tested"}}, "note": "Where two headings read alike, the source gives them in different places.", "data": [{"smiles": "CCC(CC)COC(=O)[C@H](C)N[P@](=O)(OC[C@H]1O[C@@](C#N)(c2ccc3c(N)ncnn23)[C@H](O)[C@@H]1O)Oc1ccccc1", "note": "[Remdesivir]", "values": [{"measurement": "Mean Difference (Log10PFU/lung), Infection Control vs. group", "setting": "[1]", "value": 0.97, "unit": "Log10PFU/lung"}]}, {"smiles": "O=C1C(O)=C([C@H]2CC[C@H](c3ccc(Cl)cc3)CC2)C(=O)c2ccccc21", "note": "[Atovaquone, atovaquone]", "values": [{"measurement": "antiviral efficacy", "setting": "[2]; 0.12-0.37, alone", "value": "inactive"}, {"measurement": "inhibition of virus induced cytopathic effects (CPE)", "setting": "[2]; Experiment 1, Atovaquone 0.12 micromol alone (Niclosamide 0.00)", "value": 2.38, "unit": "%"}, {"measurement": "inhibition of virus induced cytopathic effects (CPE)", "setting": "[2]; Experiment 1, Atovaquone 0.37 micromol alone (Niclosamide 0.00)", "value": 9.52, "unit": "%"}, {"measurement": "inhibition of virus induced cytopathic effects (CPE)", "setting": "[2]; Experiment 1, Atovaquone 1.10 micromol alone (Niclosamide 0.00)", "value": 16.67, "unit": "%"}, {"measurement": "inhibition of virus induced cytopathic effects (CPE)", "setting": "[2]; Experiment 1, Atovaquone 3.30 micromol alone (Niclosamide 0.00)", "value": 50.00, "unit": "%"}, {"measurement": "inhibition of virus induced cytopathic effects (CPE)", "setting": "[2]; Experiment 2, Atovaquone 0.12 micromol alone (Cepharanthine 0.00)", "value": 2.38, "unit": "%"}, {"measurement": "inhibition of virus induced cytopathic effects (CPE)", "setting": "[2]; Experiment 2, Atovaquone 0.37 micromol alone (Cepharanthine 0.00)", "value": 9.52, "unit": "%"}, {"measurement": "inhibition of virus induced cytopathic effects (CPE)", "setting": "[2]; Experiment 2, Atovaquone 1.10 micromol alone (Cepharanthine 0.00)", "value": 16.67, "unit": "%"}, {"measurement": "inhibition of virus induced cytopathic effects (CPE)", "setting": "[2]; Experiment 2, Atovaquone 3.30 micromol alone (Cepharanthine 0.00)", "value": 50.00, "unit": "%"}, {"measurement": "inhibits virus induced cytopathic effects (CPE)", "setting": "[2]; concentration of 3.3 micro mol", "value": 50, "unit": "%"}, {"measurement": "Mean Difference (Log10PFU/lung), Infection Control vs. group", "setting": "[1]", "value": 0.74, "unit": "Log10PFU/lung"}]}, {"smiles": "O=C(Nc1ccc([N+](=O)[O-])cc1Cl)c1cc(Cl)ccc1O", "note": "[Niclosamide, niclosamide]", "values": [{"measurement": "antiviral efficacy", "setting": "[2]; 0.12 to 0.37 micromolar, without the addition of atovaquone", "value": "inactive"}, {"measurement": "inhibition of virus induced cytopathic effects (CPE)", "setting": "[2]; Niclosamide 0.12 micromol alone (Atovaquone 0.00)", "value": 11.90, "unit": "%"}, {"measurement": "inhibition of virus induced cytopathic effects (CPE)", "setting": "[2]; Niclosamide 0.37 micromol alone (Atovaquone 0.00)", "value": 9.52, "unit": "%"}, {"measurement": "inhibition of virus induced cytopathic effects (CPE)", "setting": "[2]; Niclosamide 1.10 micromol alone (Atovaquone 0.00)", "value": 16.67, "unit": "%"}, {"measurement": "antiviral efficacy", "setting": "[2]; concentrations ranging from 0.12 to 1,1 micro mol", "value": "non-efficacious"}, {"measurement": "cytotoxicity", "setting": "[3]", "value": "non cytotoxic"}]}, {"smiles": "COc1ccc2cc1Oc1ccc(cc1)C[C@H]1c3c(cc4c(c3Oc3cc5c(cc3OC)CCN(C)[C@@H]5C2)OCO4)CCN1C", "note": "[Cepharanthine, cepharantine]", "values": [{"measurement": "antiviral efficacy", "setting": "[2]; 0.04-0.12 micromole, alone", "value": "inactive"}, {"measurement": "inhibition of virus induced cytopathic effects (CPE)", "setting": "[2]; Cepharanthine 0.04 micromol alone (Atovaquone 0.00)", "value": 7.14, "unit": "%"}, {"measurement": "inhibition of virus induced cytopathic effects (CPE)", "setting": "[2]; Cepharanthine 0.12 micromol alone (Atovaquone 0.00)", "value": 9.52, "unit": "%"}, {"measurement": "inhibition of virus induced cytopathic effects (CPE)", "setting": "[2]; Cepharanthine 0.37 micromol alone (Atovaquone 0.00)", "value": 14.29, "unit": "%"}, {"measurement": "inhibition of virus induced cytopathic effects (CPE)", "setting": "[2]; Cepharanthine 1.10 micromol alone (Atovaquone 0.00)", "value": 38.10, "unit": "%"}, {"measurement": "Mean Difference (Log10PFU/lung), Infection Control vs. group", "setting": "[1]", "value": 0.42, "unit": "Log10PFU/lung"}, {"measurement": "cytotoxicity", "setting": "[4]", "value": "neither cepharantine nor atovaquone are cytotoxic"}]}]}
